Assay results from patent US20130274338A1, “PHARMACEUTICAL COMPOSITIONS COMPRISING DGLA, 15-OHEPA, AND/OR 15-HETRE AND METHODS OF REDUCING SEBUM PRODUCTION USING SAME” (priority 2012, published 2013).

Tested on: P. acnes
Assay: Agar dilution method, growth of P. acnes and MIC, combinations with a fatty acid spike
Type: cell-based, Propionibacterium acnes
Parameters: key to Growth Index Plate 1 / Growth Index Plate 2 / Growth Index Plate 3 / Growth Index Avg: +++: confluent growth (comparable to control); ++: less confluent growth; +: marked reduction in growth to multiple tiny, single colonies; −: no growth present
Experimental: Several compounds including fatty acids such as DGLA, 15-OHEPA, and 15-HETrE were tested to determine their capacity to inhibit the growth of P. acnes. In an exemplary method, an agar dilution method was used to determine the minimum inhibitory concentration (MIC) of each tested compound. Briefly, the agar dilution method involved preparing a series of concentrations of each compound (e.g., nicotinamide, benzoyl peroxide, adapalene, metronidazole, DGLA, 15-OHEPA, and 15-HETrE) in a Reinforced Clostridial Agar (RCA) media that facilitates growth of P. acnes under anaerobic conditions. An inoculum of P. acnes was prepared by incubation of P. acnes for approximately seven days at 35-37° C. to achieve a ≧1.0 OD600 inoculum of P. acnes in RCM broth. A portion of this inoculum was then added to the surface of each plate as a 10 μL spot and incubated at 35-37° C. for 72 hours or more. Growth of P. acnes was then observed and compared to control plates in which no compound has been added, and positive inhibition plates prepared with erythromycin. […] The growth of P. acnes in the presence of nicotinamide, benzoyl peroxide, adapalene, metronidazole, DGLA, 15-OHEPA, and 15-HETrE was determined with varying concentrations of the compound (see, Table 2). Next, the MIC was determined as the concentration at which a marked reduction (+) occurs in the appearance of growth on the test plate (as per Clinical and Laboratory Standards Institute M11-A7).
The compounds tested singly in Example 1 were tested in combination with one another to determine the capacity of the combination to inhibit the growth of P. acnes. In an exemplary method, the MIC was determined for each of the combination as described in Example 1. Briefly, test combinations included DGLA with nicotinamide, benzoyl peroxide, adapalene, or metronidazole; 15-HETrE with nicotinamide, benzoyl peroxide, adapalene, or metronidazole; and 15-OHEPA with nicotinamide, benzoyl peroxide, adapalene, or metronidazole. The tables below show the growth of P. acnes in the presence of 0.4 or 1.0 mg/mL DGLA with varying concentrations of nicotinamide, benzoyl peroxide, adapalene, or metronidazole (Table 3); the growth of P. acnes in the presence of 0.01 or 0.05 mg/mL 15-HETrE with varying concentrations of nicotinamide, benzoyl peroxide, adapalene, or metronidazole (Table 5); and the growth of P. acnes in the presence of 0.5 or 0.1 mg/mL 15-OHEPA with varying concentrations of nicotinamide, benzoyl peroxide, adapalene, or metronidazole (Table 7).

[1] = compound at 0.2 mg/mL + 0.01 mg/mL 15-HETrE
[2] = compound at 0.2 mg/mL + 0.05 mg/mL 15-HETrE
[3] = compound at 0.2 mg/mL + 0.05 mg/mL 15-OHEPA
[4] = compound at 0.2 mg/mL + 0.1 mg/mL 15-OHEPA
[5] = compound at 0.2 mg/mL + 0.4 mg/mL dGLA
[6] = compound at 0.2 mg/mL + 1.0 mg/mL dGLA
[7] = compound at 0.4 mg/mL + 0.01 mg/mL 15-HETrE
[8] = compound at 0.4 mg/mL + 0.05 mg/mL 15-HETrE
[9] = compound at 0.4 mg/mL + 0.05 mg/mL 15-OHEPA
[10] = compound at 0.4 mg/mL + 0.1 mg/mL 15-OHEPA
[11] = compound at 0.4 mg/mL + 0.4 mg/mL dGLA
[12] = compound at 0.4 mg/mL + 1.0 mg/mL dGLA
[13] = compound at 0.6 mg/mL + 0.01 mg/mL 15-HETrE
[14] = compound at 0.6 mg/mL + 0.05 mg/mL 15-HETrE
[15] = compound at 0.6 mg/mL + 0.05 mg/mL 15-OHEPA
[16] = compound at 0.6 mg/mL + 0.1 mg/mL 15-OHEPA
[17] = compound at 0.6 mg/mL + 0.4 mg/mL dGLA
[18] = compound at 0.6 mg/mL + 1.0 mg/mL dGLA
[19] = compound at 0.7 mg/mL + 0.01 mg/mL 15-HETrE
[20] = compound at 0.7 mg/mL + 0.05 mg/mL 15-HETrE
[21] = compound at 0.7 mg/mL + 0.05 mg/mL 15-OHEPA
[22] = compound at 0.7 mg/mL + 0.1 mg/mL 15-OHEPA
[23] = compound at 0.8 mg/mL + 0.01 mg/mL 15-HETrE
[24] = compound at 0.8 mg/mL + 0.05 mg/mL 15-HETrE
[25] = compound at 0.8 mg/mL + 0.05 mg/mL 15-OHEPA
[26] = compound at 0.8 mg/mL + 0.1 mg/mL 15-OHEPA
[27] = compound at 0.8 mg/mL + 0.4 mg/mL dGLA
[28] = compound at 0.8 mg/mL + 1.0 mg/mL dGLA
[29] = compound at 1.0 mg/mL + 0.4 mg/mL dGLA
[30] = compound at 1.0 mg/mL + 1.0 mg/mL dGLA

In the case of `COc1ccc(-c2ccc3cc(C(=O)O)ccc3c2)cc1C12CC3CC(CC(C3)C1)C2` [Adapalene, 6-[3-(1-adamantyl)-4-methoxyphenyl]-2-naphthoic acid], the “Growth Index Avg” value [1] is reported as “+++”, the “Growth Index Plate 1” value [1] is reported as “+++” and the “Growth Index Plate 2” value [1] is reported as “+++”. For the same compound, the “Growth Index Plate 3” value [1] was “+++”, the “Growth Index Avg” value [2] was “−” and the “Growth Index Plate 1” value [2] was “−”. The “Growth Index Plate 2” value [2] was “−”, the “Growth Index Plate 3” value [2] was “−” and the “Growth Index Avg” value [3] was “+++”. The “Growth Index Plate 1” value [3] was “+++”, the “Growth Index Plate 2” value [3] was “+++” and the “Growth Index Plate 3” value [3] was “+++”. For the same compound, the “Growth Index Avg” value [4] was “−”, the “Growth Index Plate 1” value [4] was “−” and the “Growth Index Plate 2” value [4] was “−”. The “Growth Index Plate 3” value [4] was “−”, the “Growth Index Avg” value [5] was “+++” and the “Growth Index Plate 1” value [5] was “+++”. The “Growth Index Plate 2” value [5] was “+++”, the “Growth Index Plate 3” value [5] was “+++” and the “Growth Index Avg” value [6] was “+++”. The “Growth Index Plate 1” value [6] was “+++”, the “Growth Index Plate 2” value [6] was “+++” and the “Growth Index Plate 3” value [6] was “+++”. The “Growth Index Avg” value [7] was “+++”, the “Growth Index Plate 1” value [7] was “+++” and the “Growth Index Plate 2” value [7] was “+++”. The “Growth Index Plate 3” value [7] was “+++”, the “Growth Index Avg” value [8] was “−” and the “Growth Index Plate 1” value [8] was “−”. For the same compound, the “Growth Index Plate 2” value [8] was “−”, the “Growth Index Plate 3” value [8] was “−” and the “Growth Index Avg” value [9] was “+++”. The “Growth Index Plate 1” value [9] was “+++”, the “Growth Index Plate 2” value [9] was “+++” and the “Growth Index Plate 3” value [9] was “+++”. For the same compound, the “Growth Index Avg” value [10] was “−”, the “Growth Index Plate 1” value [10] was “−” and the “Growth Index Plate 2” value [10] was “−”. The “Growth Index Plate 3” value [10] was “−”, the “Growth Index Avg” value [11] was “+++” and the “Growth Index Plate 1” value [11] was “+++”. For the same compound, the “Growth Index Plate 2” value [11] was “+++”, the “Growth Index Plate 3” value [11] was “+++” and the “Growth Index Avg” value [12] was “+++”. For the same compound, the “Growth Index Plate 1” value [12] was “+++”, the “Growth Index Plate 2” value [12] was “+++” and the “Growth Index Plate 3” value [12] was “+++”. For the same compound, the “Growth Index Avg” value [13] was “++”, the “Growth Index Plate 1” value [13] was “++” and the “Growth Index Plate 2” value [13] was “++”. For the same compound, the “Growth Index Plate 3” value [13] was “++”, the “Growth Index Avg” value [14] was “−” and the “Growth Index Plate 1” value [14] was “−”. The “Growth Index Plate 2” value [14] was “−”, the “Growth Index Plate 3” value [14] was “−” and the “Growth Index Avg” value [15] was “+++”. The “Growth Index Plate 1” value [15] was “++”, the “Growth Index Plate 2” value [15] was “+++” and the “Growth Index Plate 3” value [15] was “+++”. The “Growth Index Avg” value [16] was “−”, the “Growth Index Plate 1” value [16] was “−” and the “Growth Index Plate 2” value [16] was “−”. For the same compound, the “Growth Index Plate 3” value [16] was “−”, the “Growth Index Avg” value [17] was “+++” and the “Growth Index Plate 1” value [17] was “+++”. For the same compound, the “Growth Index Plate 2” value [17] was “+++”, the “Growth Index Plate 3” value [17] was “+++” and the “Growth Index Avg” value [18] was “+++”. The “Growth Index Plate 1” value [18] was “+++”, the “Growth Index Plate 2” value [18] was “+++” and the “Growth Index Plate 3” value [18] was “+++”. For the same compound, the “Growth Index Avg” value [19] was “+”, the “Growth Index Plate 1” value [19] was “+” and the “Growth Index Plate 2” value [19] was “+”. For the same compound, the “Growth Index Plate 3” value [19] was “+”, the “Growth Index Avg” value [20] was “−” and the “Growth Index Plate 1” value [20] was “−”. For the same compound, the “Growth Index Plate 2” value [20] was “−”, the “Growth Index Plate 3” value [20] was “−” and the “Growth Index Avg” value [21] was “++”. For the same compound, the “Growth Index Plate 1” value [21] was “++”, the “Growth Index Plate 2” value [21] was “++” and the “Growth Index Plate 3” value [21] was “++”. For the same compound, the “Growth Index Avg” value [22] was “−”, the “Growth Index Plate 1” value [22] was “−” and the “Growth Index Plate 2” value [22] was “−”. The “Growth Index Plate 3” value [22] was “−”, the “Growth Index Avg” value [23] was “−” and the “Growth Index Plate 1” value [23] was “+”. The “Growth Index Plate 2” value [23] was “−”, the “Growth Index Plate 3” value [23] was “−” and the “Growth Index Avg” value [24] was “−”. For the same compound, the “Growth Index Plate 1” value [24] was “−”, the “Growth Index Plate 2” value [24] was “−” and the “Growth Index Plate 3” value [24] was “−”. For the same compound, the “Growth Index Avg” value [25] was “++”, the “Growth Index Plate 1” value [25] was “++” and the “Growth Index Plate 2” value [25] was “++”. For the same compound, the “Growth Index Plate 3” value [25] was “+”, the “Growth Index Avg” value [26] was “−” and the “Growth Index Plate 1” value [26] was “−”. The “Growth Index Plate 2” value [26] was “−”, the “Growth Index Plate 3” value [26] was “−” and the “Growth Index Avg” value [27] was “+++”. The “Growth Index Plate 1” value [27] was “+++”, the “Growth Index Plate 2” value [27] was “+++” and the “Growth Index Plate 3” value [27] was “+++”. The “Growth Index Avg” value [28] was “+++”, the “Growth Index Plate 1” value [28] was “+++” and the “Growth Index Plate 2” value [28] was “+++”. The “Growth Index Plate 3” value [28] was “+++”, the “Growth Index Avg” value [29] was “+++” and the “Growth Index Plate 1” value [29] was “+++”. For the same compound, the “Growth Index Plate 2” value [29] was “+++”, the “Growth Index Plate 3” value [29] was “+++” and the “Growth Index Avg” value [30] was “+++”. For the same compound, the “Growth Index Plate 1” value [30] was “+++”, the “Growth Index Plate 2” value [30] was “+++” and the “Growth Index Plate 3” value [30] was “+++”. The “growth of P. Acnes in combination with 15-OHEPA, compared with 15 OHEPA used alone” value (in combination with 15-OHEPA) was “did not reduce the growth” and the “growth of P. Acnes in combination with DGLA, compared with DGLA used alone” value (in combination with DGLA) was “did not reduce the growth”.
